In patent publication US9969716B2, “Indole derivatives as modulators of methyl modifying enzymes, compositions and uses thereof” (Constellation Pharmaceuticals, Inc., priority 2013, dated 2018):

What was measured:
EZH2 = EZH2 (Homo sapiens, UniProt Q15910); assay: EZH2 assay (rPRC2, 3H SAM methyl transfer to biotinylated oligonucleosomes, FlashPlate); format: biochemical
Procedure, shortened: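 rPRC2 (2 nM EZH2) with 0.2 μM biotinylated oligonucleosomes, 3.6 μM H3K27me3 peptide, 0.2 μM 3H SAM in pH 8.5 Tris buffer; compounds (80 to 0.16 μM) preincubated 20 min, reaction 60 min, SAH/EDTA quench. Methylated product captured on streptavidin FlashPlates, scintillation counted.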

Y641N EZH2 = Y641N EZH2 (Homo sapiens, UniProt Q15910, Y641N); assay: Y641N EZH2 assay (as EZH2 assay, H3K27Me2 oligonucleosomes as substrate); format: biochemical
Sequence of Y641N EZH2 (Q15910 whole entry Y641N): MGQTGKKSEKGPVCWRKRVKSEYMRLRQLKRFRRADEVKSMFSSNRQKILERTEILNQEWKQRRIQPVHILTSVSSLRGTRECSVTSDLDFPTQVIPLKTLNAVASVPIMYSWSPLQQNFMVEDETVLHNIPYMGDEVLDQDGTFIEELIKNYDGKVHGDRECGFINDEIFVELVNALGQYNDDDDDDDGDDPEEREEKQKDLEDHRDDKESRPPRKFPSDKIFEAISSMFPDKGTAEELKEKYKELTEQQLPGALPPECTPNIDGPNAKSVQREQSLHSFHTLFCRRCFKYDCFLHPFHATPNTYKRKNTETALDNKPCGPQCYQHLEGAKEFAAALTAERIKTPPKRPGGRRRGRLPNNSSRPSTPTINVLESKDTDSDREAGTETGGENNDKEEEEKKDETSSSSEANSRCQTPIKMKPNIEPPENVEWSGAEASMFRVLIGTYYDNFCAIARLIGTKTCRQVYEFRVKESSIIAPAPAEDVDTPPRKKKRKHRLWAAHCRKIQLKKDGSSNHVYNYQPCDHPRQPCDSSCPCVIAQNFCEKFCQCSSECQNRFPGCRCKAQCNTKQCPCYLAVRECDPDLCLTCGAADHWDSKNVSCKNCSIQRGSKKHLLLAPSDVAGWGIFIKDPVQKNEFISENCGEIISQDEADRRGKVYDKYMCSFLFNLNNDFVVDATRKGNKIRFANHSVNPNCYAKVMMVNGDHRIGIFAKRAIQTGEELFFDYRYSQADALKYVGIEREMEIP
Sequence of Y641N EZH2 (O75530 whole entry partner): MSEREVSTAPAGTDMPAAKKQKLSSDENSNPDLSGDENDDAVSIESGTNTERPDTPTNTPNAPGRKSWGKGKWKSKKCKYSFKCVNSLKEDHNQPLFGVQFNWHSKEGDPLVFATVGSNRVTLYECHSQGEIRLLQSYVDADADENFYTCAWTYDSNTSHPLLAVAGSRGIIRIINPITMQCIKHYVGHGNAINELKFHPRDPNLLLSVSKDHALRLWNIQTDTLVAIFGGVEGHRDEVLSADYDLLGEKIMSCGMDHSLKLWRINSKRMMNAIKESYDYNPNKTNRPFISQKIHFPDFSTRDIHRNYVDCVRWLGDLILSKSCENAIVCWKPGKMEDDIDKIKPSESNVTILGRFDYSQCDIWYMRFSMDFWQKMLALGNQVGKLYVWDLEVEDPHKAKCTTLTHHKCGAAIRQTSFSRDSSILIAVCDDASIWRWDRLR
Sequence of Y641N EZH2 (Q15022 whole entry partner): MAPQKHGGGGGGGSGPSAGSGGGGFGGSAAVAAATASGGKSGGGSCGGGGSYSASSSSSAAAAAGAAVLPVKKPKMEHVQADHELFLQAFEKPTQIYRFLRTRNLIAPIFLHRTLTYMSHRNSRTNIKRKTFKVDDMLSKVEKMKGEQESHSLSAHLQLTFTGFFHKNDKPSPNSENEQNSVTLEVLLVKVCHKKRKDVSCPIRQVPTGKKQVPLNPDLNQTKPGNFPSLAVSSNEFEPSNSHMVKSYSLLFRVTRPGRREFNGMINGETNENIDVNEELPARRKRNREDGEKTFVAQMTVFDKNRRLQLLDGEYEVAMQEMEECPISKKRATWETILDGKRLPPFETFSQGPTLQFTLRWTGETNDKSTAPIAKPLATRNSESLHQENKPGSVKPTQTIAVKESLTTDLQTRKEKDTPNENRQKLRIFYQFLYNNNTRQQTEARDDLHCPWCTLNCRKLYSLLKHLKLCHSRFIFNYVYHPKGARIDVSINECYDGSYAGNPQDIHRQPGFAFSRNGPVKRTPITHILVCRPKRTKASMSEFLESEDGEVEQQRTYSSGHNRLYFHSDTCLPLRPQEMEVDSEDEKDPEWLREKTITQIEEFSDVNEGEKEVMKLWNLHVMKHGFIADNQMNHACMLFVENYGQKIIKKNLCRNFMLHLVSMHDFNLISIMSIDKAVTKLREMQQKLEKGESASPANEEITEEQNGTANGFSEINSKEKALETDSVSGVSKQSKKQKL
Experimental: EZH2 Assay: Assays were carried out by mixing rPRC2 together with biotinylated oligonucleosome substrates in the presence of the radio-labeled enzyme co-factor, S-adenosyl-L-methionine (^3H SAM) (Perkin Elmer) and monitoring the enzymatically mediated transfer of tritiated methyl groups from ^3H SAM to histone lysine residues. The amount of resulting tritiated methyl histone product was measured by first capturing the biotinylated oligonucleosomes in streptavidin (SAV) coated FlashPlates (Perkin Elmer), followed by a wash step to remove un-reacted ^3H SAM, and then counting on a TopCount NXT 384 well plate scintillation counter (Perkin Elmer). The final assay conditions for EZH2 were as follows: 50 mM Tris Buffer pH 8.5, 1 mM DTT, 69 μM Brij-35 detergent, 5.0 mM MgCl2, 0.1 mg/mL BSA, 0.2 μM ^3H SAM, 0.2 μM biotinylated oligonucleosomes, 3.6 μM H3K27me3 peptide and 2 nM EZH2.
A 12.5 μL volume of the HMT enzyme, H3K27me3 peptide and oligonucleosome substrate in assay buffer was added to each well of the assay plate using a Multidrop Combi (ThermoFisher). Compounds were pre-incubated with the enzyme for 20 min, followed by initiation of the methyltransferase reaction by addition of 12.5 μL of ^3H SAM in assay buffer (final volume=25 μL). The final concentrations of compounds ranged from a top default concentration of 80 μM down to 0.16 μM in ten 2-fold dilution steps. Reactions were carried out for 60 minutes and quenched with 20 μL per well of 1.96 mM SAH, 50 mM Tris pH 8.5, 200 mM EDTA. Stopped reactions were transferred to SAV coated Flashplates (Perkin Elmer), incubated for 120 min, washed with a plate washer, and then read on the TopCount NXT (1.0 min/well) to measure the amount of methyl histone product formed during the reaction.

[1] = tested on: H3K27me3 mark in HeLa cells; assay: H3K27me3 Alpha Hela Assay (AlphaLISA); format: cell-based; conditions: Homo sapiens, 72 hrs, read-out: EZH2_Cell_H3K27me3_Alpha_HeLa (EC50_K27me3)
Procedure, shortened: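 Ten-dose 3-fold series on HeLa cells (1,000/well, 10% DMEM), 72 hrs at 37° C. Lysis, histone extraction, then AlphaLISA with anti-K27me3 acceptor beads, biotinylated anti-H3 C-ter antibody (3 nM final) and streptavidin donor beads (20 μg/mL final); duplicate plate used for viability. DMSO-normalized dose-response curves fitted.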

Sequence of EZH2 (Q15910 whole entry): as the sequence (Q15910 whole entry Y641N) above, with N641Y counted along it
Sequence of EZH2 (O75530 whole entry partner): as the sequence (O75530 whole entry partner) above
Sequence of EZH2 (Q15022 whole entry partner): as the sequence (Q15022 whole entry partner) above

Compound	IC50 (EZH2)	IC50 (Y641N EZH2)	EC50 [1]
COc1cc(C)[nH]c(=O)c1CNC(=O)c1c(C)n([C@H](C)C2CCN(c3cnccn3)CC2)c2ccccc12 [Compound 149]	< 100 nM	< 100 nM	400 to 2000 nM
COc1cc(C)[nH]c(=O)c1CNC(=O)c1c(C)n([C@H](C)C2CCN(CC(C)(C)C(F)(F)F)CC2)c2ccccc12 [Compound 136]	100 to 1000 nM	100 to 1000 nM	< 400 nM
CNc1cc(C)[nH]c(=O)c1CNC(=O)c1c(C)n([C@H](C)C2CCN(c3ncc(F)cn3)CC2)c2ccccc12 [Compound 146]	< 100 nM	< 100 nM	400 to 2000 nM
COc1cc(C)[nH]c(=O)c1CNC(=O)c1c(C)n([C@H](C)C2CCN(S(=O)(=O)c3ccccc3)CC2)c2ccccc12 [Compound 138]	< 100 nM	< 100 nM	< 400 nM
COc1cc(C)[nH]c(=O)c1CNC(=O)c1c(C)n([C@H](C)C2CCN(C(=O)C3(C(F)(F)F)CC3)CC2)c2ccccc12 [Compound 115]	< 100 nM	< 100 nM	< 400 nM
CCS(=O)(=O)N1CCC([C@@H](C)n2c(C)c(C(=O)NCc3c(NC)cc(C)[nH]c3=O)c3ccccc32)CC1 [Compound 123]	< 100 nM	< 100 nM	< 400 nM
COc1cc(C)[nH]c(=O)c1CNC(=O)c1c(C)n([C@H](C)C2CCN(C(=O)C3CC3)CC2)c2ccccc12 [Compound 157]	< 100 nM	< 100 nM	400 to 2000 nM
Cc1cc(Cl)c(CNC(=O)c2c(C)n([C@H](C)C3CCN(CCF)CC3)c3ccccc23)c(=O)[nH]1 [Compound 126]	< 100 nM	< 100 nM	< 400 nM
COc1cc(C)[nH]c(=O)c1CNC(=O)c1c(C)n([C@H](C)C2CCN(CC(F)(F)C(F)(F)F)CC2)c2ccccc12 [Compound 113]	< 100 nM	< 100 nM	< 400 nM
COc1cc(C)[nH]c(=O)c1CNC(=O)c1c(C)n([C@H](C)C2CCN(CC3(C(F)(F)F)CC3)CC2)c2ccccc12 [Compound 102]	< 100 nM	< 100 nM	< 400 nM
COc1cc(C)[nH]c(=O)c1CNC(=O)c1c(C)n([C@H](C)C2CCN(C(CF)CF)CC2)c2ccccc12 [Compound 166]	< 100 nM	< 100 nM	> 2000 nM
COc1cc(C)[nH]c(=O)c1CNC(=O)c1c(C)n([C@H](C)C2CCN(C(=O)N3CCOCC3)CC2)c2ccccc12 [Compound 167]	< 100 nM	< 100 nM	> 2000 nM
Cc1cc(Cl)c(CNC(=O)c2c(C)n([C@H](C)C3CCN(CC(F)F)CC3)c3ccccc23)c(=O)[nH]1 [Compound 106]	< 100 nM	< 100 nM	< 400 nM
COc1cc(C)[nH]c(=O)c1CNC(=O)c1c(C)n([C@H](C)C2CCN(S(=O)(=O)C3CC3)CC2)c2ccccc12 [Compound 117, (R)-1-(1-(1-(cyclopropylsulfonyl)piperidin-4-yl)ethyl)-N-((4-methoxy-6-methyl-2-oxo-1,2-dihydropyridin-3-yl)methyl)-2-methyl-1H-indole-3-carboxamide]	< 100 nM	< 100 nM	< 400 nM
COc1cc(C)[nH]c(=O)c1CNC(=O)c1c(C)n([C@H](C)C2CCN(Cc3cc(F)cc(F)c3)CC2)c2ccccc12 [Compound 109, (R)-1-(1-(1-(3,5-difluorobenzyl)piperidin-4-yl)ethyl)-N-((4-methoxy-6-methyl-2-oxo-1,2-dihydropyridin-3-yl)methyl)-2-methyl-1H-indole-3-carboxamide]	< 100 nM	< 100 nM	< 400 nM
Cc1cc(C)c(CNC(=O)c2c(C)n([C@H](C)C3CCN(S(=O)(=O)C4CCN(C)CC4)CC3)c3ccccc23)c(=O)[nH]1 [Compound 139]	< 100 nM	< 100 nM	< 400 nM
COc1cc(C)[nH]c(=O)c1CNC(=O)c1c(C)n([C@H](C)C2CCN(Cc3ccccn3)CC2)c2ccccc12 [Compound 148]	< 100 nM	< 100 nM	400 to 2000 nM

Compound	IC50 (EZH2)	IC50 (Y641N EZH2)	EC50 [1]
COc1cc(C)[nH]c(=O)c1CNC(=O)c1c(C)n([C@H](C)C2CCN(C[C@H](OC)C(F)(F)F)CC2)c2ccccc12 [Compound 121]	< 100 nM	< 100 nM	< 400 nM
COc1cc(C)[nH]c(=O)c1CNC(=O)c1c(C)n([C@H](C)C2CCN(CC3(F)CCC3)CC2)c2ccccc12 [Compound 118]	< 100 nM	< 100 nM	< 400 nM
CCN(CC)C(=O)CN1CCC([C@@H](C)n2c(C)c(C(=O)NCc3c(OC)cc(C)[nH]c3=O)c3ccccc32)CC1 [Compound 168]	< 100 nM	< 100 nM	> 2000 nM
COc1cc(C)[nH]c(=O)c1CNC(=O)c1c(C)n([C@H](C)C2CCN(C(=O)C(C)(C)C)CC2)c2ccccc12 [Compound 129]	< 100 nM	< 100 nM	< 400 nM
COc1cc(C)[nH]c(=O)c1CNC(=O)c1c(C)n([C@H](C)C2CCN(c3ccc(C)nc3)CC2)c2ccccc12 [Compound 133]	< 100 nM	< 100 nM	< 400 nM
COc1cc(C)[nH]c(=O)c1CNC(=O)c1c(C)n([C@H](C)C2CCN(c3cccnc3)CC2)c2ccccc12 [Compound 125]	< 100 nM	< 100 nM	< 400 nM
COc1cc(C)[nH]c(=O)c1CNC(=O)c1c(C)n([C@H](C)C2CCN(CC3CC3)CC2)c2ccccc12 [Compound 145]	< 100 nM	< 100 nM	400 to 2000 nM
COc1cc(C)[nH]c(=O)c1CNC(=O)c1c(C)n([C@H](C)C2CCN(S(=O)(=O)c3ccc(F)cc3)CC2)c2ccccc12 [Compound 137]	< 100 nM	< 100 nM	< 400 nM
COc1cc(C)[nH]c(=O)c1CNC(=O)c1c(C)n([C@H](C)C2CCN(c3ncc(Br)cn3)CC2)c2ccccc12 [Compound 124, (R)-1-(1-(1-(5-bromopyrimidin-2-yl)piperidin-4-yl)ethyl)-N-((4-methoxy-6-methyl-2-oxo-1,2-dihydropyridin-3-yl)methyl)-2-methyl-1H-indole-3-carboxamide]	< 100 nM	< 100 nM	< 400 nM
COc1cc(C)[nH]c(=O)c1CNC(=O)c1c(C)n([C@H](C)C2CCN(c3ccc(Cl)cc3)CC2)c2ccccc12 [Compound 154]	< 100 nM	< 100 nM	400 to 2000 nM
Cc1cc(Cl)c(CNC(=O)c2c(C)n([C@H](C)C3CCN(CC(C)(C)O)CC3)c3ccccc23)c(=O)[nH]1 [Compound 142]	< 100 nM	< 100 nM	< 400 nM
COc1cc(C)[nH]c(=O)c1CNC(=O)c1c(C)n([C@H](C)C2CCN(C(=O)c3ccccc3)CC2)c2ccccc12 [Compound 153]	< 100 nM	< 100 nM	400 to 2000 nM
COc1cc(C)[nH]c(=O)c1CNC(=O)c1c(C)n([C@H](C)C2CCN(c3ncc(Cl)cn3)CC2)c2ccccc12 [Compound 130]	< 100 nM	< 100 nM	< 400 nM
CNc1cc(C)[nH]c(=O)c1CNC(=O)c1c(C)n([C@H](C)C2CCN(CCC(F)(F)F)CC2)c2ccccc12 [Compound 155]	< 100 nM	< 100 nM	400 to 2000 nM
COc1cc(C)[nH]c(=O)c1CNC(=O)c1c(C)n([C@H](C)C2CCN(C(=O)N(C)C)CC2)c2ccccc12 [Compound 158]	< 100 nM	< 100 nM	400 to 2000 nM
COCCOCCOCCOCCOCCOCCOC(=O)N1CCC([C@@H](C)n2c(C)c(C(=O)NCc3c(OC)cc(C)[nH]c3=O)c3ccccc32)CC1 [Compound 165]	< 100 nM	100 to 1000 nM	> 2000 nM
